The source of these data is ChEMBL document CHEMBL1201862, “PubChem BioAssay data set” (2004).

Assay in all cases: inhibition of tumour cell growth, NCI panel, 48 h
For assay [1], the system named is A498.
For assay [2], the system named is SW-620.
The subject of assay [3] is U-251.
The test system of assay [4] is MOLT-4.
Assay [5] concerns SK-MEL-5.
The test system of assay [6] is SR.
Assay [7] concerns HCT-116.
Assay [8] concerns KM12.
For assay [9], the system named is OVCAR-3.
Assay [10] relates to IGROV-1.
The subject of assay [11] is RPMI-8226.
For assay [12], the system named is HL-60.
In assay [13] the test system is RXF 393.
In assay [14] the test system is OVCAR-8.
The subject of assay [15] is HCC 2998.
In assay [16] the test system is HOP-62.
Assay [17] concerns NCI-H23.
Assay [18] has as its system UO-31.

Molecules are shown by their SMILES.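 Exposure lasted 48 hours, with cells grown in 96-well plates and compounds tested at five concentrations. Abbreviation: GI50, concentration required for 50% inhibition of growth.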 The source made the active and inactive calls. Cut-off read from the data, not from the text of the source: active = GI50 up to about 1.1 µM and inactive = higher.

In the case of `CC(=O)n1c2c(c(=O)n1-c1ccccc1)[S+]([O-])CCC2` (configuration not stated), the GI50 in assay [1] is > 100 µM (inactive); in assay [2], 33.3 µM (inactive); in assay [3] it was > 100 µM (inactive); in assay [4] it was 1.25 µM (inactive); in assay [5], 62.4 µM (inactive); in assay [6], 4.53 µM (inactive). The GI50 is 44.1 µM (inactive) in assay [7]; 9.1 µM (inactive) in [8]; 57.1 µM (inactive) in [9]; 99.1 µM (inactive) in assay [10]; 6.08 µM (inactive) in [11]; 24.4 µM (inactive) in assay [12]. For the same compound, the GI50 in assay [13] was 15.6 µM (inactive); in [14] it was > 100 µM (inactive); in assay [15], < 0.01 µM (active); in assay [16], 11.1 µM (inactive); in assay [17], > 100 µM (inactive); in [18] it was > 100 µM (inactive).
As for `CS(=O)(=O)CC1=Nc2nnc(CCCCCCCc3nnc4n3C(=O)C(CS(C)(=O)=O)=N4)n2C1=O`, the GI50 in [1], in assay [2], in assay [3], in assay [4], in assay [5] and in assay [6] was > 100 µM (inactive) each time. The GI50 in assay [7], in assay [8], in [9], in assay [10], in [11] and in assay [12] was > 100 µM (inactive) throughout. Also, the GI50 in [13], in assay [14], in assay [15], in assay [16], in assay [17] and in assay [18] was > 100 µM (inactive) in each case.
For `CC(CNCCCNCCNCCCNCO)[N+](=O)[O-]` (configuration not stated), the GI50 in assay [1] was 17.5 µM (inactive); in assay [2] it was 3.6 µM (inactive); in assay [3] it was 15.9 µM (inactive); in assay [4], 4.12 µM (inactive); in [5] it was 16.3 µM (inactive); in [6], 3.39 µM (inactive). Further, the GI50 in assay [7] was 10.8 µM (inactive); in [8], 16.1 µM (inactive); in assay [9], 16.5 µM (inactive); in [10], 20.4 µM (inactive); in assay [11], 5.06 µM (inactive); in assay [12], 3.89 µM (inactive). For the same compound, the GI50 in assay [13] was 15.8 µM (inactive); in assay [14], 14.4 µM (inactive); in assay [15], 16.6 µM (inactive); in assay [16] it was > 100 µM (inactive); in [17], 15 µM (inactive); in [18], 16.9 µM (inactive).
For `O=C(O/N=C1/CCC/C1=C\c1ccccc1)c1ccc([N+](=O)[O-])cc1`, the GI50 in assay [1], in [2], in assay [3], in [4], in assay [5] and in [6] was > 100 µM (inactive) each time. Besides, the GI50 in assay [7], in assay [8], in assay [9], in assay [10], in assay [11] and in assay [12] was > 100 µM (inactive) throughout. Moreover, the GI50 was 84.7 µM (inactive) in assay [13]; > 100 µM (inactive) in [14]; 11.7 µM (inactive) in assay [15]; 96.6 µM (inactive) in assay [16]; > 100 µM (inactive) in [17]; 25.3 µM (inactive) in assay [18].
